Laboratory results from the NIST ThermoML archive (doi:10.1021/je030107c).

Columns and labels:
[1] = xn = mol fraction of the nth substance listed; details: 101.3 kPa, Liquid; for viscosity: Capillary tube (Ostwald / Ubbelohde) method; for speed of sound: Linear variable-path acoustic interferometer; for mass density: Pycnometric method
[2] = refractive index (Na D-line) (dimensionless); xn = mol fraction of the nth substance listed; details: 101.3 kPa, Liquid, Standard Abbe refractometry

C1COCCO1 [1,4-dioxane] + CCCCCC
Details	mass density, 298.15 K [kg/m3]	mass density, 303.15 K [kg/m3]	mass density, 308.15 K [kg/m3]	refractive index, 298.15 K	refractive index, 303.15 K	refractive index, 308.15 K	speed of sound, 298.15 K [m/s]	viscosity, 298.15 K [mPa·s]	viscosity, 303.15 K [mPa·s]	viscosity, 308.15 K [mPa·s]
[1], x1 = 0.1135	682	677.3	672.5	–	–	–	1087	0.333	0.319	0.304
[1], x1 = 0.2057	706.4	701.4	696.5	–	–	–	1099	0.357	0.34	0.323
[1], x1 = 0.3099	736.2	731.2	726.1	–	–	–	1116	0.391	0.372	0.353
[1], x1 = 0.4032	765.7	760.5	755.3	–	–	–	1132	0.429	0.408	0.386
[1], x1 = 0.501	799.6	794.3	788.9	–	–	–	1154	0.482	0.455	0.429
[1], x1 = 0.6028	838.1	832.7	827.2	–	–	–	1185	0.549	0.517	0.485
[1], x1 = 0.7006	878.7	873.3	868	–	–	–	1220	0.634	0.596	0.557
[1], x1 = 0.7991	924	918.3	912.4	–	–	–	1257	0.753	0.705	0.656
[1], x1 = 0.8962	972.1	966.4	960.8	–	–	–	1303	0.912	0.849	0.787
[1], x1 = 1	1027.6	1021.9	1016.2	–	–	–	1347	1.166	1.069	0.984
[2], x1 = 0.1135	–	–	–	1.3758	1.3728	1.37	–	–	–	–
[2], x1 = 0.2057	–	–	–	1.3787	1.3756	1.3726	–	–	–	–
[2], x1 = 0.3099	–	–	–	1.3824	1.3795	1.3767	–	–	–	–
[2], x1 = 0.4032	–	–	–	1.3864	1.3838	1.3814	–	–	–	–
[2], x1 = 0.501	–	–	–	1.3906	1.3878	1.385	–	–	–	–
[2], x1 = 0.6028	–	–	–	1.3954	1.3928	1.3903	–	–	–	–
[2], x1 = 0.7006	–	–	–	1.4014	1.3986	1.3959	–	–	–	–
[2], x1 = 0.7991	–	–	–	1.4078	1.4048	1.4017	–	–	–	–
[2], x1 = 0.8962	–	–	–	1.414	1.4119	1.4098	–	–	–	–
[2], x1 = 1	–	–	–	1.4201	1.417	1.4143	–	–	–	–

C1COCCO1 [1,4-dioxane] + OCCO
Details	mass density, 298.15 K [kg/m3]	mass density, 303.15 K [kg/m3]	mass density, 308.15 K [kg/m3]	refractive index, 298.15 K	refractive index, 303.15 K	refractive index, 308.15 K	speed of sound, 298.15 K [m/s]	viscosity, 298.15 K [mPa·s]	viscosity, 303.15 K [mPa·s]	viscosity, 308.15 K [mPa·s]
[1], x1 = 0.1031	1100.6	1096.6	1092.8	–	–	–	1620	9.007	7.262	5.518
[1], x1 = 0.2072	1090.6	1086.4	1082.4	–	–	–	1577	6.285	5.149	4.013
[1], x1 = 0.3021	1082	1077.6	1073.1	–	–	–	1537	4.654	3.849	3.044
[1], x1 = 0.4246	1071.1	1066.5	1061.7	–	–	–	1485	3.177	2.68	2.181
[1], x1 = 0.5042	1064.5	1059.7	1054.7	–	–	–	1456	2.566	2.184	1.802
[1], x1 = 0.5986	1056.8	1051.7	1046.8	–	–	–	1426	2.012	1.728	1.444
[1], x1 = 0.6914	1049.6	1044.5	1039.5	–	–	–	1400	1.663	1.447	1.229
[1], x1 = 0.7906	1042.4	1037.1	1031.8	–	–	–	1381	1.388	1.226	1.063
[1], x1 = 0.8909	1035.2	1029.9	1024.5	–	–	–	1369	1.212	1.081	0.949
[1], x1 = 1	1027.6	1021.9	1016.2	–	–	–	1347	1.166	1.069	0.984
[2], x1 = 0.1031	–	–	–	1.4294	1.4279	1.4262	–	–	–	–
[2], x1 = 0.2072	–	–	–	1.4284	1.4268	1.425	–	–	–	–
[2], x1 = 0.3021	–	–	–	1.4275	1.4256	1.4236	–	–	–	–
[2], x1 = 0.4246	–	–	–	1.426	1.424	1.4219	–	–	–	–
[2], x1 = 0.5042	–	–	–	1.4248	1.4226	1.4204	–	–	–	–
[2], x1 = 0.5986	–	–	–	1.4238	1.4216	1.4193	–	–	–	–
[2], x1 = 0.6914	–	–	–	1.423	1.4207	1.4186	–	–	–	–
[2], x1 = 0.7906	–	–	–	1.422	1.4196	1.4172	–	–	–	–
[2], x1 = 0.8909	–	–	–	1.421	1.4187	1.4163	–	–	–	–
[2], x1 = 1	–	–	–	1.4201	1.417	1.4143	–	–	–	–

CCCCN(CCCC)CCCC [tributylamine] + C1COCCO1
Details	mass density, 298.15 K [kg/m3]	mass density, 303.15 K [kg/m3]	mass density, 308.15 K [kg/m3]	refractive index, 298.15 K	refractive index, 303.15 K	refractive index, 308.15 K	speed of sound, 298.15 K [m/s]	viscosity, 298.15 K [mPa·s]	viscosity, 303.15 K [mPa·s]	viscosity, 308.15 K [mPa·s]
[1], x2 = 0	774.4	770.1	766.2	–	–	–	1261	1.36	1.221	1.125
[1], x2 = 0.1201	785.1	780.9	776.8	–	–	–	1253	1.245	1.142	1.039
[1], x2 = 0.2122	794.7	790.2	785.9	–	–	–	1254	1.19	1.089	0.989
[1], x2 = 0.3072	806	801.6	797.1	–	–	–	1257	1.156	1.059	0.963
[1], x2 = 0.4085	820.5	815.9	811.4	–	–	–	1264	1.137	1.044	0.95
[1], x2 = 0.5014	836.6	832.1	827.5	–	–	–	1272	1.123	1.032	0.94
[1], x2 = 0.5972	856.9	852.1	847.4	–	–	–	1281	1.118	1.026	0.934
[1], x2 = 0.6998	884	879.2	874.1	–	–	–	1292	1.112	1.022	0.933
[1], x2 = 0.7999	917.9	912.6	907.4	–	–	–	1305	1.114	1.025	0.936
[1], x2 = 0.8947	960.6	955.2	949.9	–	–	–	1320	1.133	1.042	0.952
[2], x2 = 0	–	–	–	1.4274	1.4251	1.4226	–	–	–	–
[2], x2 = 0.1201	–	–	–	1.4266	1.424	1.4215	–	–	–	–
[2], x2 = 0.2122	–	–	–	1.4259	1.4236	1.421	–	–	–	–
[2], x2 = 0.3072	–	–	–	1.425	1.4226	1.4201	–	–	–	–
[2], x2 = 0.4085	–	–	–	1.4244	1.4218	1.4196	–	–	–	–
[2], x2 = 0.5014	–	–	–	1.4234	1.4209	1.4184	–	–	–	–
[2], x2 = 0.5972	–	–	–	1.4226	1.4201	1.4174	–	–	–	–
[2], x2 = 0.6998	–	–	–	1.4217	1.4192	1.4168	–	–	–	–
[2], x2 = 0.7999	–	–	–	1.421	1.4185	1.416	–	–	–	–
[2], x2 = 0.8947	–	–	–	1.4205	1.418	1.4154	–	–	–	–

CCN(CC)CC [triethylamine] + C1COCCO1
Details	mass density, 298.15 K [kg/m3]	mass density, 303.15 K [kg/m3]	mass density, 308.15 K [kg/m3]	refractive index, 298.15 K	refractive index, 303.15 K	refractive index, 308.15 K	speed of sound, 298.15 K [m/s]	viscosity, 298.15 K [mPa·s]	viscosity, 303.15 K [mPa·s]	viscosity, 308.15 K [mPa·s]
[1], x2 = 0	723.1	718.5	713.6	–	–	–	1127	0.363	0.347	0.33
[1], x2 = 0.1104	744.6	739.7	734.8	–	–	–	1139	0.392	0.372	0.353
[1], x2 = 0.2044	764.5	759.5	754.6	–	–	–	1155	0.418	0.397	0.377
[1], x2 = 0.3028	787.3	782.2	777.1	–	–	–	1172	0.451	0.428	0.404
[1], x2 = 0.398	811.3	806.1	800.9	–	–	–	1189	0.494	0.466	0.438
[1], x2 = 0.4946	838	832.8	827.5	–	–	–	1210	0.542	0.512	0.481
[1], x2 = 0.5986	869.7	864.3	859	–	–	–	1234	0.613	0.575	0.538
[1], x2 = 0.6952	902.3	896.8	891.5	–	–	–	1260	0.697	0.652	0.608
[1], x2 = 0.7996	941.2	935.6	930	–	–	–	1290	0.815	0.76	0.705
[1], x2 = 0.8934	979.8	974.2	968.5	–	–	–	1318	0.958	0.889	0.821
[2], x2 = 0	–	–	–	1.3983	1.3955	1.3926	–	–	–	–
[2], x2 = 0.1104	–	–	–	1.3996	1.3969	1.3942	–	–	–	–
[2], x2 = 0.2044	–	–	–	1.4014	1.3985	1.3956	–	–	–	–
[2], x2 = 0.3028	–	–	–	1.4032	1.4002	1.3972	–	–	–	–
[2], x2 = 0.398	–	–	–	1.4048	1.402	1.3994	–	–	–	–
[2], x2 = 0.4946	–	–	–	1.4068	1.404	1.4013	–	–	–	–
[2], x2 = 0.5986	–	–	–	1.4095	1.4067	1.4041	–	–	–	–
[2], x2 = 0.6952	–	–	–	1.4117	1.409	1.4062	–	–	–	–
[2], x2 = 0.7996	–	–	–	1.4147	1.412	1.4093	–	–	–	–
[2], x2 = 0.8934	–	–	–	1.4176	1.4148	1.4121	–	–	–	–
